Format in all cases: cell-based
Series [1] in a line: CC50 assay (cytopathology in HEp-2 cells). Particulars: human. As for the experimental part: The cytopathology of compounds in HEp-2 cells is determined in the following manner. HEp-2 cells are suspended in DMEM+GlutaMAX (supplemented with 10% FBS and 1% Penicillin/Streptomycin) and seeded into 96 well plates (3×10^3/well). After a 4-hour incubation at 37° C.+5% CO2, three-fold serial dilutions of compounds are added to each well using an HP D300e digital dispenser. The cells are then incubated for 4 days at 37° C. and 5% CO2. The final volume in each well is 200 μL. Untreated wells are included as controls for 100% cell viability, while compounds treated with 5 uM puromycin are included as controls for 0% viability. Following the incubation, 100 μL of culture supernatant is removed from each well and replaced with 100 μL of CellTiter-Glo reagent (Promega, Madison, WI, Cat #G7573). The plates are then rocked for 2 minutes followed by a 10-minute incubation at 25° C. Compound-induced cytopathic effect is then assessed by measuring luminescence signal using and Envision plate reader. Values are normalized to the untreated DMSO and puromycin-treated controls (as 100% and 0% viability, respectively) and data is fit using non-linear regression analysis using XLfit4. The CC50 value for each compound is then determined as the concentration reducing cell viability by 50%.

Series [2] has as its system SARS-CoV-2. In words: SARS-CoV-2 antiviral assay (A549-hACE2, Nano luciferase). To be noted: Severe acute respiratory syndrome coronavirus 2, 48 h, A549-hACE2 cells, SARS-CoV2-Nano, MOI 0.025, 48 h.
The test system of series [3] is Respiratory syncytial virus (RSV) strain A2. In words: RSV antiviral assay (HEp-2, 96 well). Particulars: human respiratory syncytial virus.
The subject of series [4] is Recombinant respiratory syncytial virus expressing the firefly luciferase protein (RSV-Fluc). Briefly: microbe, parasite or virus in culture. Particulars: human respiratory syncytial virus, NHBE, 72 h, read-out: EC50 RSVFluc NHBE 96, NHBE cells, RSV-Fluc, MOI of 0.1, three days, 96 well; Table 4.
[5] abbreviates: HEp-2 cells, 4 days, CellTiter-Glo, Table 1, read-out: RSV CC50.
The mark [6] stands for this setting: Table 4, read-out: EC50 SARS CoV2.
Where [7] appears, read: HEp-2, 96 h, read-out: EC50-RSV-HEP-2-96, HEp-2 cells, RSV A2, MOI=4, 4 days, 96 well, CellTiter-Glo, Table 1.
Where [8] appears, read: Table 1, read-out: SARS-CoV-2 EC50.

Results on 14 molecules are retold here after patent US12404289B2 (Gilead Sciences, Inc., priority 2020, dated 2025).

As usually defined, the CC50 is the concentration that lowers cell viability or growth by half. In general, EC50 refers to the concentration at which the effect is half-maximal.

Where two headings read alike, the source gives them in different places.

`CCC(CC)COC(=O)[C@H](C)N[P@](=O)(OC[C@H]1O[C@@](C#N)(c2ccc3c(N)ncnn23)[C@H](O)[C@@H]1O)Oc1ccccc1` gave a CC50 at 4 days in series [1] of 6080 nM. In addition, the concentration for a half-maximal effect (EC50) in series [2] (Table 2, read-out: SARS-CoV-2 EC50) worked out at 110 nM; in series [3] (96 h, HEp-2 cells, RSV A2, MOI=4, 4 days, 96 well, Table 2, read-out: EC50-RSV-HEP-2-96), 14.9 nM.
For `CCC(CC)COC(=O)[C@H](C)N[P@](=O)(OC[C@H]1O[C@@](C#N)(c2ccc3c(N)ncnn23)[C@H](OC(=O)C(C)C)[C@@H]1OC(=O)C(C)C)Oc1ccccc1` [Example 1, (2R,3R,4R,5R)-2-(4-aminopyrrolo[2,1-f][1,2,4]triazin-7-yl)-2-cyano-5-((((S)—(((S)-1-(2-ethylbutoxy)-1-oxopropan-2-yl)amino)(phenoxy)phosphoryl)oxy)methyl) tetrahydrofuran-3,4-diyl bis(2-methylpropanoate)], in series [1] (setting [5]), the CC50 at 4 days was determined as 5490 nM. Moreover, the EC50 in series [4] stood at 6.56 nM; in series [2] (setting [6]), 338 nM; in series [3] (setting [7]), 122 nM.
Take `CC(C)OC(=O)[C@H](C)N[P@](=O)(OC[C@H]1O[C@@](C#N)(c2ccc3c(N)ncnn23)[C@H](OC(=O)C(C)C)[C@@H]1OC(=O)C(C)C)Oc1ccccc1` [Example 7, (2R,3R,4R,5R)-2-(4-aminopyrrolo[2,1-f][1,2,4]triazin-7-yl)-2-cyano-5-((((S)—(((S)-1-isopropoxy-1-oxopropan-2-yl)amino)(phenoxy)phosphoryl)oxy)methyl) tetrahydrofuran-3,4-diyl bis(2-methylpropanoate)]: the half-maximal cytotoxic concentration (CC50) at 4 days in series [1] (setting [5]) is 12600 nM. The values for the EC50 in series [2] (setting [8]), in series [2] (setting [6]) and in series [3] (setting [7]) were 241 nM, 372 nM and 77.9 nM, respectively.
Take `CCOC(=O)[C@H](C)NP(=O)(OC[C@H]1O[C@@](C#N)(c2ccc3c(N)ncnn23)[C@H](OC(=O)CC)[C@@H]1OC(=O)CC)Oc1ccccc1` (stereo partly drawn) [Example 11, (2R,3R,4R,5R)-2-(4-aminopyrrolo[2,1-f][1,2,4]triazin-7-yl)-2-cyano-5-((((((S)-1-ethoxy-1-oxopropan-2-yl)amino)(phenoxy)phosphoryl)oxy)methyl)tetrahydrofuran-3,4-diyl Dipropionate]: the CC50 at 4 days in series [1] (setting [5]) was found to be 12800 nM. In addition, the EC50 in series [2] (setting [8]) stood at 76.8 nM; in series [2] (setting [6]), 208 nM; in series [3] (setting [7]), 67.2 nM.
For `CCOC(=O)[C@H](C)NP(=O)(OC[C@H]1O[C@@](C#N)(c2ccc3c(N)ncnn23)[C@H](OC(C)=O)[C@@H]1OC(C)=O)Oc1ccccc1` (stereo partly drawn) [Example 12, (2R,3R,4R,5R)-2-(4-aminopyrrolo[2,1-f][1,2,4]triazin-7-yl)-2-cyano-5-((((((S)-1-ethoxy-1-oxopropan-2-yl)amino)(phenoxy)phosphoryl)oxy)methyl)tetrahydrofuran-3,4-diyl Diacetate], the half-maximal cytotoxic concentration (CC50) at 4 days in series [1] (setting [5]) came to 30900 nM. Further, the figures for the 50% effective concentration (EC50) in series [2] (setting [6]) and in series [3] (setting [7]) were 139 nM and 166 nM, respectively.
On to `COC(=O)[C@H](C)NP(=O)(OC[C@H]1O[C@@](C#N)(c2ccc3c(N)ncnn23)[C@H](O)[C@@H]1O)Oc1ccc(C(C)(C)C)cc1` (stereo partly drawn) [Example 15, Methyl ((((2R,3S,4R,5R)-5-(4-aminopyrrolo[2,1-f][1,2,4]triazin-7-yl)-5-cyano-3,4-dihydroxytetrahydrofuran-2-yl)methoxy)(4-(tert-butyl)phenoxy)phosphoryl)-L-alaninate], for which the half-maximal cytotoxic concentration (CC50) at 4 days in series [1] (setting [5]) is 22900 nM. Besides, the EC50 in series [2] (setting [6]) came to 777 nM; in series [3] (setting [7]), 185 nM.
Turning to `COC(=O)[C@H](C)NP(=O)(OC[C@H]1O[C@@](C#N)(c2ccc3c(N)ncnn23)[C@H](OC(=O)C(C)C)[C@@H]1OC(=O)C(C)C)Oc1ccc(C(C)(C)C)cc1` (stereo partly drawn) [Example 16, (2R,3R,4R,5R)-2-(4-aminopyrrolo[2,1-f][1,2,4]triazin-7-yl)-5-((((4-(tert-butyl)phenoxy)(((S)-1-methoxy-1-oxopropan-2-yl)amino)phosphoryl)oxy)methyl)-2-cyanotetrahydrofuran-3,4-diyl bis(2-methylpropanoate)], the CC50 at 4 days in series [1] (setting [5]) stood at 2840 nM. Also, the concentration giving a half-maximal response (EC50) in series [2] (setting [8]) amounted to 83.8 nM; in series [2] (setting [6]), 199 nM; in series [3] (setting [7]), 9.3 nM.
As to `CCOC(=O)[C@H](C)NP(=O)(OC[C@H]1O[C@@](C#N)(c2ccc3c(N)ncnn23)[C@H](O)[C@@H]1O)Oc1ccc(C(C)(C)C)cc1` (stereo partly drawn) [Example 17, Ethyl ((((2R,3S,4R,5R)-5-(4-aminopyrrolo[2,1-f][1,2,4]triazin-7-yl)-5-cyano-3,4-dihydroxytetrahydrofuran-2-yl)methoxy)(4-(tert-butyl)phenoxy)phosphoryl)-L-alaninate], the cytotoxic concentration (CC50) at 4 days in series [1] (setting [5]) stood at 20800 nM. The half-maximal effective concentration (EC50) in series [2] (setting [6]) came to 850 nM; in series [3] (setting [7]) it was 164 nM.
With `CCC(CC)COC(=O)[C@H](C)NP(=O)(OC[C@H]1O[C@@](C#N)(c2ccc3c(N)ncnn23)[C@H](OC(=O)C(C)C)[C@@H]1OC(=O)C(C)C)Oc1c(C)cccc1C` (stereo partly drawn) [Example 20, (2R,3R,4R,5R)-2-(4-aminopyrrolo[2,1-f][1,2,4]triazin-7-yl)-2-cyano-5-((((2,6-dimethylphenoxy)(((S)-1-(2-ethylbutoxy)-1-oxopropan-2-yl)amino)phosphoryl)oxy)methyl)tetrahydrofuran-3,4-diyl bis(2-methylpropanoate)], the CC50 at 4 days in series [1] (setting [5]) amounted to 5180 nM. The concentration for a half-maximal effect (EC50) in series [3] (setting [7]) came out at 444 nM.
On the same counts, the results for `CCOCCOCCOC(=O)[C@H](C)NP(=O)(OC[C@H]1O[C@@](C#N)(c2ccc3c(N)ncnn23)[C@H](O)[C@@H]1O)Oc1ccccc1` (stereo partly drawn) [Example 22, 2-(2-Ethoxyethoxy)ethyl ((((2R,3S,4R,5R)-5-(4-aminopyrrolo[2,1-f][1,2,4]triazin-7-yl)-5-cyano-3,4-dihydroxytetrahydrofuran-2-yl)methoxy)(phenoxy)phosphoryl)-L-alaninate] are over 50000 nM and over 4720 nM.
`CCOCCOCCOC(=O)[C@H](C)NP(=O)(OC[C@H]1O[C@@](C#N)(c2ccc3c(N)ncnn23)[C@H](OC(=O)C(C)C)[C@@H]1OC(=O)C(C)C)Oc1ccccc1` (stereo partly drawn) [Example 23, (2R,3R,4R,5R)-2-(4-Aminopyrrolo[2,1-f][1,2,4]triazin-7-yl)-2-cyano-5-((((((S)-1-(2-(2-ethoxyethoxy)ethoxy)-1-oxopropan-2-yl)amino)(phenoxy)phosphoryl)oxy)methyl)tetrahydrofuran-3,4-diyl bis(2-methylpropanoate)]: the cytotoxic concentration (CC50) at 4 days in series [1] (setting [5]) is 5640 nM. Besides, the EC50 in series [3] (setting [7]) is 75.9 nM.
As to `COC(C)(C)COC(=O)[C@H](C)NP(=O)(OC[C@H]1O[C@@](C#N)(c2ccc3c(N)ncnn23)[C@H](O)[C@@H]1O)Oc1ccccc1` (stereo partly drawn) [Example 24, 2-Methoxy-2-methylpropyl ((((2R,3S,4R,5R)-5-(4-aminopyrrolo[2,1-f][1,2,4]triazin-7-yl)-5-cyano-3,4-dihydroxytetrahydrofuran-2-yl)methoxy)(phenoxy)phosphoryl)-L-alaninate], the cytotoxic concentration (CC50) at 4 days in series [1] (setting [5]) is over 50000 nM. Further, the concentration giving a half-maximal response (EC50) in series [3] (setting [7]) amounted to 1470 nM.
For the molecule `COC(C)(C)COC(=O)[C@H](C)NP(=O)(OC[C@H]1O[C@@](C#N)(c2ccc3c(N)ncnn23)[C@H](OC(=O)C(C)C)[C@@H]1OC(=O)C(C)C)Oc1ccccc1` (stereo partly drawn) [Example 25, (2R,3R,4R,5R)-2-(4-aminopyrrolo[2,1-f][1,2,4]triazin-7-yl)-2-cyano-5-((((((S)-1-(2-methoxy-2-methylpropoxy)-1-oxopropan-2-yl)amino)(phenoxy)phosphoryl)oxy)methyl)tetrahydrofuran-3,4-diyl bis(2-methylpropanoate)], the 50% cytotoxic concentration (CC50) at 4 days in series [1] (setting [5]) was found to be 4780 nM. The figures for the concentration giving a half-maximal response (EC50) in series [2] (setting [8]), in series [2] (setting [6]) and in series [3] (setting [7]) were 122 nM, 350 nM and 11.1 nM, respectively.
Consider `CCC(CC)COC(=O)[C@H](C)NP(=O)(OC[C@H]1O[C@@](C#N)(c2ccc3c(N)ncnn23)[C@H](OC(=O)C(C)C)[C@@H]1OC(=O)C(C)C)Oc1cc(C)ccc1C(C)C` (stereo partly drawn) [Example 27, (2R,3R,4R,5R)-2-(4-Aminopyrrolo[2,1-f][1,2,4]triazin-7-yl)-2-cyano-5-((((((S)-1-(2-ethylbutoxy)-1-oxopropan-2-yl)amino)(2-isopropyl-5-methylphenoxy)phosphoryl)oxy)methyl)tetrahydrofuran-3,4-diyl bis(2-methylpropanoate)], for which, in series [1] (setting [5]), the CC50 at 4 days came out at 5860 nM. Further, the concentration giving a half-maximal response (EC50) in series [3] (setting [7]) is 958 nM.
